Reference: ChEMBL document CHEMBL1687756 (Antimicrob Agents Chemother, 2010)

What was measured:
[1] = Absolute bioavailability in Beagle […] at 5 mg/kg administered intramuscularly after 176 days; format: ADME, organism-based, Canis lupus familiaris; conditions: in vivo, im
[2] = AUC (0 to last) in Beagle dog at 5 mg/kg, sc after 176 days; format: ADME, organism-based, Canis lupus familiaris; parameters: time 0 - last, dose 5 mg/kg, route subcutaneous; conditions: plasma
[3] = Absolute bioavailability in Beagle dog at 5 mg/kg, sc after 176 days; format: ADME, organism-based, Canis lupus familiaris; conditions: in vivo
[4] = Cmax in Beagle dog at 5 mg/kg administered intramuscularly after 184 days; format: ADME, organism-based, Canis lupus familiaris; parameters: dose 5 mg/kg, route intramuscular; conditions: in vivo, im
[5] = Cmax in Beagle dog at 5 mg/kg, sc after 184 days; format: ADME, organism-based, Canis lupus familiaris; parameters: dose 5 mg/kg, route subcutaneous; conditions: in vivo
[6] = Plasma concentration in Beagle dog at 5 mg/kg, sc after 6 months; format: ADME, organism-based, Canis lupus familiaris; parameters: dose 5 mg/kg, route subcutaneous
[7] = Drug level in Beagle dog muscle at injected site at 5 mg/kg administered intramuscularly after 3 months; format: ADME, organism-based, Canis lupus familiaris, Muscle tissue; parameters: dose 5 mg/kg, route intramuscular; conditions: im, read-out: Drug uptake
[8] = Drug level in Beagle dog muscle at injected site at 5 mg/kg, sc after 6 months; format: ADME, organism-based, Canis lupus familiaris, Muscle tissue; parameters: dose 5 mg/kg, route subcutaneous; conditions: read-out: Drug uptake
[9] = Drug level in Beagle dog muscle at non-injected site at 5 mg/kg administered intramuscularly after 6 months; format: ADME, organism-based, Canis lupus familiaris, Muscle tissue; parameters: dose 5 mg/kg, route intramuscular; conditions: im, read-out: Drug uptake
[10] = Drug level in Beagle dog skin at injected site at 5 mg/kg administered intramuscularly after 3 months; format: ADME, organism-based, Canis lupus familiaris, Zone of skin; parameters: dose 5 mg/kg, route intramuscular; conditions: im, read-out: Drug uptake
[11] = Drug level in Beagle dog skin at injected site at 5 mg/kg administered intramuscularly after 6 months; format: ADME, organism-based, Canis lupus familiaris, Zone of skin; parameters: dose 5 mg/kg, route intramuscular; conditions: im, read-out: Drug uptake
[12] = Drug level in Beagle dog skin at injected site at 5 mg/kg, sc after 3 months; format: ADME, organism-based, Canis lupus familiaris, Zone of skin; parameters: dose 5 mg/kg, route subcutaneous; conditions: read-out: Drug uptake
[13] = Drug level in Beagle dog skin at non-injected site at 5 mg/kg administered intramuscularly after 3 months; format: ADME, organism-based, Canis lupus familiaris, Zone of skin; parameters: dose 5 mg/kg, route intramuscular; conditions: im, read-out: Drug uptake
[14] = Drug level in male Beagle dog thymus at 200 mg/kg, sc after 3 months; format: ADME, organism-based, Canis lupus familiaris; parameters: dose 200 mg/kg, route subcutaneous; conditions: read-out: Drug uptake
[15] = Plasma concentration in female Beagle dog at 400 mg/kg, sc after 3 months; format: ADME, organism-based, Canis lupus familiaris; parameters: dose 400 mg/kg, route subcutaneous
[16] = Plasma concentration in female Beagle dog at 200 mg/kg administered intramuscularly after 3 months; format: ADME, organism-based, Canis lupus familiaris; parameters: dose 200 mg/kg, route intramuscular; conditions: im
[17] = Plasma concentration in female Beagle dog at 400 mg/kg administered intramuscularly after 3 months; format: ADME, organism-based, Canis lupus familiaris; parameters: dose 400 mg/kg, route intramuscular; conditions: im
[18] = Drug level in female Beagle dog thymus at 400 mg/kg administered intramuscularly after 3 months; format: ADME, organism-based, Canis lupus familiaris; parameters: dose 400 mg/kg, route intramuscular; conditions: im, read-out: Drug uptake
[19] = Ratio of drug level in spleen to plasma in male Beagle dog at 200 mg/kg, sc after 1 month; format: ADME, organism-based, Canis lupus familiaris; parameters: dose 200 mg/kg, route subcutaneous
[20] = Ratio of drug level in thymus to plasma in male Beagle dog at 200 mg/kg, sc after 1 month; format: ADME, organism-based, Canis lupus familiaris; parameters: dose 200 mg/kg, route subcutaneous
[21] = Ratio of drug level in thymus to plasma in male Beagle dog at 400 mg/kg administered intramuscularly after 1 month; format: ADME, organism-based, Canis lupus familiaris; parameters: dose 400 mg/kg, route intramuscular; conditions: im
[22] = Ratio of drug level in spleen to plasma in male Beagle dog at 400 mg/kg administered intramuscularly after 3 months; format: ADME, organism-based, Canis lupus familiaris; parameters: dose 400 mg/kg, route intramuscular; conditions: im
[23] = Ratio of drug level in thymus to plasma in male Beagle dog at 400 mg/kg, sc after 3 months; format: ADME, organism-based, Canis lupus familiaris; parameters: dose 400 mg/kg, route subcutaneous
[24] = Ratio of drug level in thymus to plasma in male Beagle dog at 400 mg/kg administered intramuscularly after 3 months; format: ADME, organism-based, Canis lupus familiaris; parameters: dose 400 mg/kg, route intramuscular; conditions: im
[25] = Plasma concentration in Beagle dog at 5 mg/kg, sc after 3 months; format: ADME, organism-based, Canis lupus familiaris; parameters: dose 5 mg/kg, route subcutaneous
[26] = Drug level in Beagle dog lymph node popliteal at 5 mg/kg, sc after 1 month; format: ADME, organism-based, Canis lupus familiaris; parameters: dose 5 mg/kg, route subcutaneous; conditions: read-out: Drug uptake
[27] = Drug level in Beagle dog lymph node popliteal at 5 mg/kg, sc after 3 months; format: ADME, organism-based, Canis lupus familiaris; parameters: dose 5 mg/kg, route subcutaneous; conditions: read-out: Drug uptake
[28] = Drug level in Beagle dog lymph node popliteal at 5 mg/kg, sc after 6 months; format: ADME, organism-based, Canis lupus familiaris; parameters: dose 5 mg/kg, route subcutaneous; conditions: read-out: Drug uptake
[29] = Ratio of drug level in lymph node popliteal to plasma in Beagle dog at 5 mg/kg, sc after 6 months; format: ADME, organism-based, Canis lupus familiaris; parameters: dose 5 mg/kg, route subcutaneous
[30] = Drug level in Beagle dog lymph node axillar at 5 mg/kg administered intramuscularly after 3 months; format: ADME, organism-based, Canis lupus familiaris; parameters: dose 5 mg/kg, route intramuscular; conditions: axillary lymph node, im, read-out: Drug uptake
[31] = Drug level in Beagle dog spleen at 5 mg/kg administered intramuscularly after 3 months; format: ADME, organism-based, Canis lupus familiaris; parameters: dose 5 mg/kg, route intramuscular; conditions: im, read-out: Drug uptake
[32] = Drug level in Beagle dog spleen at 5 mg/kg, sc after 3 months; format: ADME, organism-based, Canis lupus familiaris; parameters: dose 5 mg/kg, route subcutaneous; conditions: read-out: Drug uptake
[33] = Ratio of drug level in spleen to plasma in Beagle dog at 5 mg/kg, sc after 6 months; format: ADME, organism-based, Canis lupus familiaris; parameters: dose 5 mg/kg, route subcutaneous
[34] = Plasma concentration in male Beagle dog at 400 mg/kg, sc after 1 month; format: ADME, organism-based, Canis lupus familiaris; parameters: dose 400 mg/kg, route subcutaneous
[35] = Plasma concentration in male Beagle dog at 400 mg/kg administered intramuscularly after 1 month; format: ADME, organism-based, Canis lupus familiaris; parameters: dose 400 mg/kg, route intramuscular; conditions: im
[36] = Drug level in male Beagle dog spleen at 200 mg/kg administered intramuscularly after 1 month; format: ADME, organism-based, Canis lupus familiaris; parameters: dose 200 mg/kg, route intramuscular; conditions: im, read-out: Drug uptake
[37] = Drug level in male Beagle dog thymus at 400 mg/kg administered intramuscularly after 1 month; format: ADME, organism-based, Canis lupus familiaris; parameters: dose 400 mg/kg, route intramuscular; conditions: im, read-out: Drug uptake
[38] = Plasma concentration in female Beagle dog at 400 mg/kg administered intramuscularly after 1 month; format: ADME, organism-based, Canis lupus familiaris; parameters: dose 400 mg/kg, route intramuscular; conditions: im, read-out: Drug uptake
[39] = Drug level in female Beagle dog thymus at 200 mg/kg administered intramuscularly after 1 month; format: ADME, organism-based, Canis lupus familiaris; parameters: dose 200 mg/kg, route intramuscular; conditions: im, read-out: Drug uptake
[40] = Drug level in female Beagle dog thymus at 400 mg/kg administered intramuscularly after 1 month; format: ADME, organism-based, Canis lupus familiaris; parameters: dose 400 mg/kg, route intramuscular; conditions: im, read-out: Drug uptake
[41] = Ratio of drug level in thymus to plasma in female Beagle dog at 400 mg/kg, sc after 1 month; format: ADME, organism-based, Canis lupus familiaris; parameters: dose 400 mg/kg, route subcutaneous
[42] = Ratio of drug level in thymus to plasma in female Beagle dog at 200 mg/kg administered intramuscularly after 1 month; format: ADME, organism-based, Canis lupus familiaris; parameters: dose 200 mg/kg, route intramuscular; conditions: im
[43] = Ratio of drug level in thymus to plasma in female Beagle dog at 400 mg/kg, sc after 3 months; format: ADME, organism-based, Canis lupus familiaris; parameters: dose 400 mg/kg, route subcutaneous
[44] = Ratio of drug level in thymus to plasma in female Beagle dog at 200 mg/kg administered intramuscularly after 3 months; format: ADME, organism-based, Canis lupus familiaris; parameters: dose 200 mg/kg, route intramuscular; conditions: im
[45] = Ratio of drug level in thymus to plasma in female Beagle dog at 400 mg/kg administered intramuscularly after 3 months; format: ADME, organism-based, Canis lupus familiaris; parameters: dose 400 mg/kg, route intramuscular; conditions: im
Canis familiaris [46] = assay: Toxicity in Beagle dog assessed as white deposits at 20 mg/kg, sc after 3 months; format: organism-based, Canis lupus familiaris; parameters: dose 20 mg/kg, route subcutaneous; conditions: in vivo, 2191.5 h
Canis familiaris [47] = assay: Toxicity in Beagle dog assessed as abscess formation at 20 mg/kg, sc after 3 months; format: organism-based, Canis lupus familiaris; parameters: dose 20 mg/kg, route subcutaneous; conditions: in vivo, 2191.5 h
[48] = Cmax in female dog at 200 mg, sc after 29 days; conditions: in vivo
[49] = AUC (0 to last) in male dog at 200 mg, sc after 29 days; conditions: plasma
[50] = AUC (0 to last) in male dog at 200 mg, sc after 85 days; conditions: plasma
[51] = AUC (0 to last) in female dog at 200 mg, sc after 29 days; conditions: plasma
[52] = Tmax in female dog at 200 mg administered intramuscularly after 29 days; conditions: in vivo, im
[53] = Cmax in female dog at 200 mg administered intramuscularly after 85 days; conditions: in vivo, im
[54] = Tmax in female dog at 200 mg administered intramuscularly after 85 days; conditions: in vivo, im
[55] = Cmax in female dog at 400 mg administered intramuscularly after 85 days; conditions: in vivo, im

Structure (SMILES): Cc1cc(/C=C/C#N)cc(C)c1Nc1ccnc(Nc2ccc(C#N)cc2)n1 [RILPIVIRINE]
- bioavailability [1]: 102%
- AUC(0-t) at 4224 h [2]: 19700 ng·h/mL
- bioavailability [3]: 80%
- Cmax [4]: 173 ng/mL
- Cmax [5]: 38 ng/mL
- concentration at 4383 h [6]: 1.3 ng/mL
- concentration at 2191.5 h [7]: 142000 ng/g
- concentration at 4383 h [8]: 48 ng/g
- concentration at 4383 h [9]: < 5 ng/g
- concentration at 2191.5 h [10]: 16.7 ng/g
- concentration at 4383 h [11]: 9.5 ng/g
- concentration at 2191.5 h [12]: 223000 ng/g
- concentration at 2191.5 h [13]: 12.4 ng/g
- concentration at 2191.5 h [14]: 84.2 ng/g
- concentration at 2191.5 h [15]: 36 ng/mL
- concentration at 2191.5 h [16]: 10.1 ng/mL
- concentration at 2191.5 h [17]: 20.3 ng/mL
- concentration at 2191.5 h [18]: 109 ng/g
- Kp at 730.5 h [19]: 2
- Kp at 730.5 h [20]: 6
- Kp at 730.5 h [21]: 4
- Kp at 2191.5 h [22]: 2.9
- Kp at 2191.5 h [23]: 3.5
- Kp at 2191.5 h [24]: 3.9
- concentration at 2191.5 h [25]: 3.3 ng/mL
- concentration at 730.5 h [26]: 68.2 ng/g
- concentration at 2191.5 h [27]: 26.8 ng/g
- concentration at 4383 h [28]: 5.5 ng/g
- Kp at 4383 h [29]: 4.3
- concentration at 2191.5 h [30]: 25.5 ng/g
- concentration at 2191.5 h [31]: < 5 ng/g
- concentration at 2191.5 h [32]: 9.7 ng/g
- Kp at 4383 h [33]: 5.5
- concentration at 730.5 h [34]: 209 ng/mL
- concentration at 730.5 h [35]: 158 ng/mL
- concentration at 730.5 h [36]: 133 ng/g
- concentration at 730.5 h [37]: 634 ng/g
- concentration at 730.5 h [38]: 118 ng/g
- concentration at 730.5 h [39]: 353 ng/g
- concentration at 730.5 h [40]: 676 ng/g
- Kp at 730.5 h [41]: 5
- Kp at 730.5 h [42]: 5.7
- Kp at 2191.5 h [43]: 2.9
- Kp at 2191.5 h [44]: 2.8
- Kp at 2191.5 h [45]: 4.9
- Activity (Canis familiaris [46]): Non-toxic
- Activity (Canis familiaris [47]): Non-toxic
- Cmax [48]: 185 ng/mL
- AUC(0-t) at 696 h [49]: 56800 ng·h/mL
- AUC(0-t) at 2040 h [50]: 97800 ng·h/mL
- AUC(0-t) at 696 h [51]: 70600 ng·h/mL
- Tmax [52]: 4.6 h
- Cmax [53]: 1140 ng/mL
- Tmax [54]: 0.55 h
- Cmax [55]: 5260 ng/mL
